Measured values published in the NIST ThermoML archive (doi:10.1016/j.jct.2015.08.014).

Assay: xn = mol fraction of the nth substance listed
Conditions: 298.15 K, 100 kPa, Liquid, Alternating current cell with electrodes

CCCC[N+]1(C)CCCC1.N#CN=C=[N-] [1-butyl-1-methylpyrrolidinium dicyanamide] + O=C1CCCO1
Conditions	electrical conductivity [S/m]
Frequency=0.005 MHz, x1 = 0.3029	2.54
Frequency=0.005 MHz, x1 = 0.3845	2.36
Frequency=0.005 MHz, x1 = 0.4985	2.08
Frequency=0.005 MHz, x1 = 0.6954	1.68
Frequency=0.005 MHz, x1 = 0.9013	1.39
Frequency=0.005 MHz, x1 = 1	1.317
Frequency=0.005454 MHz, x1 = 0.0463	1.47
Frequency=0.005454 MHz, x1 = 0.0987	2.21
Frequency=0.005454 MHz, x1 = 0.1449	2.51
Frequency=0.005454 MHz, x1 = 0.1859	2.67
Frequency=0.005454 MHz, x1 = 0.2493	2.613
Frequency=0.005454 MHz, x1 = 0.3029	2.54
Frequency=0.005454 MHz, x1 = 0.3845	2.36
Frequency=0.005454 MHz, x1 = 0.4985	2.08
Frequency=0.005454 MHz, x1 = 0.6954	1.68
Frequency=0.005454 MHz, x1 = 0.9013	1.39
Frequency=0.005454 MHz, x1 = 1	1.317
Frequency=0.006 MHz, x1 = 0.0463	1.47
Frequency=0.006 MHz, x1 = 0.0987	2.21
Frequency=0.006 MHz, x1 = 0.1449	2.51
Frequency=0.006 MHz, x1 = 0.1859	2.67
Frequency=0.006 MHz, x1 = 0.2493	2.613
Frequency=0.006 MHz, x1 = 0.3029	2.54
Frequency=0.006 MHz, x1 = 0.3845	2.36
Frequency=0.006 MHz, x1 = 0.4985	2.08
Frequency=0.006 MHz, x1 = 0.6954	1.68
Frequency=0.006 MHz, x1 = 0.9013	1.39
Frequency=0.006 MHz, x1 = 1	1.317
Frequency=0.00652174 MHz, x1 = 0.0463	1.47
Frequency=0.00652174 MHz, x1 = 0.0987	2.22
Frequency=0.00652174 MHz, x1 = 0.1449	2.51
Frequency=0.00652174 MHz, x1 = 0.1859	2.67
Frequency=0.00652174 MHz, x1 = 0.2493	2.613
Frequency=0.00652174 MHz, x1 = 0.3029	2.54
Frequency=0.00652174 MHz, x1 = 0.3845	2.36
Frequency=0.00652174 MHz, x1 = 0.4985	2.08
Frequency=0.00652174 MHz, x1 = 0.6954	1.68
Frequency=0.00652174 MHz, x1 = 0.9013	1.39
Frequency=0.00652174 MHz, x1 = 1	1.317
Frequency=0.00694444 MHz, x1 = 0.0463	1.47
Frequency=0.00694444 MHz, x1 = 0.0987	2.22
Frequency=0.00694444 MHz, x1 = 0.1449	2.51
Frequency=0.00694444 MHz, x1 = 0.1859	2.67
Frequency=0.00694444 MHz, x1 = 0.2493	2.613
Frequency=0.00694444 MHz, x1 = 0.3029	2.54
Frequency=0.00694444 MHz, x1 = 0.3845	2.36
Frequency=0.00694444 MHz, x1 = 0.4985	2.08
Frequency=0.00694444 MHz, x1 = 0.6954	1.68
Frequency=0.00694444 MHz, x1 = 0.9013	1.39
Frequency=0.00694444 MHz, x1 = 1	1.317
Frequency=0.0075 MHz, x1 = 0.0463	1.47
Frequency=0.0075 MHz, x1 = 0.0987	2.22
Frequency=0.0075 MHz, x1 = 0.1449	2.51
Frequency=0.0075 MHz, x1 = 0.1859	2.67
Frequency=0.0075 MHz, x1 = 0.2493	2.613
Frequency=0.0075 MHz, x1 = 0.3029	2.54
Frequency=0.0075 MHz, x1 = 0.3845	2.36
Frequency=0.0075 MHz, x1 = 0.4985	2.08
Frequency=0.0075 MHz, x1 = 0.6954	1.68
Frequency=0.0075 MHz, x1 = 0.9013	1.39
Frequency=0.0075 MHz, x1 = 1	1.318
Frequency=0.008 MHz, x1 = 0.0463	1.47
Frequency=0.008 MHz, x1 = 0.0987	2.22
Frequency=0.008 MHz, x1 = 0.1449	2.51
Frequency=0.008 MHz, x1 = 0.1859	2.67
Frequency=0.008 MHz, x1 = 0.2493	2.613
Frequency=0.008 MHz, x1 = 0.3029	2.54
Frequency=0.008 MHz, x1 = 0.3845	2.36
Frequency=0.008 MHz, x1 = 0.4985	2.08
Frequency=0.008 MHz, x1 = 0.6954	1.68
Frequency=0.008 MHz, x1 = 0.9013	1.39
Frequency=0.008 MHz, x1 = 1	1.318
Frequency=0.00857143 MHz, x1 = 0.0463	1.48
Frequency=0.00857143 MHz, x1 = 0.0987	2.22
Frequency=0.00857143 MHz, x1 = 0.1449	2.51
Frequency=0.00857143 MHz, x1 = 0.1859	2.67
Frequency=0.00857143 MHz, x1 = 0.2493	2.613
Frequency=0.00857143 MHz, x1 = 0.3029	2.54
Frequency=0.00857143 MHz, x1 = 0.3845	2.36
Frequency=0.00857143 MHz, x1 = 0.4985	2.08
Frequency=0.00857143 MHz, x1 = 0.6954	1.68
Frequency=0.00857143 MHz, x1 = 0.9013	1.39
Frequency=0.00857143 MHz, x1 = 1	1.318
Frequency=0.00892857 MHz, x1 = 0.0463	1.48
Frequency=0.00892857 MHz, x1 = 0.0987	2.22
Frequency=0.00892857 MHz, x1 = 0.1449	2.51
Frequency=0.00892857 MHz, x1 = 0.1859	2.67
Frequency=0.00892857 MHz, x1 = 0.2493	2.614
Frequency=0.00892857 MHz, x1 = 0.3029	2.54
Frequency=0.00892857 MHz, x1 = 0.3845	2.36
Frequency=0.00892857 MHz, x1 = 0.4985	2.08
Frequency=0.00892857 MHz, x1 = 0.6954	1.68
Frequency=0.00892857 MHz, x1 = 0.9013	1.39
Frequency=0.00892857 MHz, x1 = 1	1.318
Frequency=0.00961538 MHz, x1 = 0.0463	1.48
Frequency=0.00961538 MHz, x1 = 0.0987	2.22
Frequency=0.00961538 MHz, x1 = 0.1449	2.51
Frequency=0.00961538 MHz, x1 = 0.1859	2.68
Frequency=0.00961538 MHz, x1 = 0.2493	2.614
Frequency=0.00961538 MHz, x1 = 0.3029	2.54
Frequency=0.00961538 MHz, x1 = 0.3845	2.36
Frequency=0.00961538 MHz, x1 = 0.4985	2.08
Frequency=0.00961538 MHz, x1 = 0.6954	1.68
Frequency=0.00961538 MHz, x1 = 0.9013	1.39
Frequency=0.00961538 MHz, x1 = 1	1.318
Frequency=0.01 MHz, x1 = 0.0463	1.48
Frequency=0.01 MHz, x1 = 0.0987	2.22
